Experimental findings from patent publication US8658202B2, “Coated drug delivery formulations” (Western University of Health Sciences, priority 2001, dated 2014) are described below.

Read-outs that look alike come from different tables or passages of the source. Marks after values point to notes of the source that are not given here.

The nature of data set [1]: Pharmacokinetics of halofantrine enantiomers after oral gavage of proliposomal or control suspension. It is filed as in vivo, Sprague-Dawley rats. The conditions noted are these: 7 mg/kg oral gavage, rats; for AUC: AUC0-24, mean±SD; for Cmax / Tmax: mean±SD. On the procedure:
The pharmacokinetic parameters of the enteric coated proliposomal formulation of halofantrine were evaluated as follows. The proliposomal product was prepared as a suspension in 0.78% methylcellulose. A non-liposomal suspension formulation (control) was prepared by dispersing halofantrine powder in 1% methylcellulose. Sprague-Dawley rats were cannulated at the right jugular vein under halothane anesthesia. After an overnight rest, the rats were given 7 mg/kg of a halofantrine suspension as either the proliposomal (7 rats) or control (6 rats) formulation by oral gavage. Serial blood samples were obtained from the cannula until 48 h post-dose. A stereospecific HPLC assay was used to measure plasma concentration of halofantrine enantiomers. Noncompartmental pharmacokinetic methods were used to determine AUC0-24, Cmax and tmax. Student's unpaired t-test was used to assess significance of differences.

Data set [2] in a line: Comparison of preparation methods: absorbance in the aqueous phase (incorporation with the lipid). It is filed as physicochemical. The source says:
(§1) One embodiment of the present invention was compared to a control method for producing pharmaceutical formulations. The control method used in the following examples is disclosed by Ganter in U.S. Pat. No. 5,635,206, herein incorporated by reference, at Example 1, except that the percentage of water used was 5% and 0%. To exemplar drugs which are poorly water soluble were used: glyburide and benzocaine.
(§2) The following tables summarize the protocol used and the results.
Some embodiments of the present invention have one or more of the aforementioned advantages.

A short description of data set [3]: Comparison of preparation methods: particle size. It is filed as physicochemical.
Description: as §1, §2

A short description of data set [4]: Comparison of preparation methods: texture of product. It is filed as physicochemical. The conditions noted are these: 12% drug, 63% lecithin (DMPC).
Description: as §1, §2

[5] abbreviates: Control: halofantrine powder in 1% methylcellulose.
Where [6] appears, read: Liposome: enteric coated proliposomal formulation.

Regarding `CCCCN(CCCC)CCC(O)c1cc2c(Cl)cc(Cl)cc2c2cc(C(F)(F)F)ccc12` (single isomer, unassigned; (+)) [(+)-HF, halofantrine], in data set [1] (setting [5]), the AUC is recorded as 5.2 ± 0.81^b μg × h/mL, the Cmax is on record as 391 ± 59.2^b ng/mL and the Tmax is 7.0 ± 2.3 h. In addition, the AUC in data set [1] (Liposome: enteric coated proliposomal formulation in 0.78% methylcellulose) is given as 7.7 ± 1.8^a,b μg × h/mL. For the same compound, in data set [1] (setting [6]), the Cmax is reported as 722 ± 170^a,b ng/mL and the Tmax turned out to be 4.1 ± 2.3 h.

As to `CCCCN(CCCC)CCC(O)c1cc2c(Cl)cc(Cl)cc2c2cc(C(F)(F)F)ccc12` (single isomer, unassigned; (-)) [(−)-HF, halofantrine], the AUC was determined as 1900 ± 530 ng·h/mL in data set [1] (Sprague-Dawley, rat, plasma, po, 7 mg/kg, Control: halofantrine powder in 1% methylcellulose, read-out: AUC) and 2600 ± 660 ng·h/mL in data set [1] (Sprague-Dawley, rat, plasma, po, 7 mg/kg, Liposome: enteric coated proliposomal formulation in 0.78% methylcellulose, read-out: AUC). Moreover, the Cmax in data set [1] (Sprague-Dawley, rat, plasma, po, 7 mg/kg, Control: halofantrine powder in 1% methylcellulose, read-out: Cmax) amounted to 196 ± 42.3 ng/mL; in data set [1] (Sprague-Dawley, rat, plasma, po, 7 mg/kg, Liposome: enteric coated proliposomal formulation, read-out: Cmax), 360 ± 80.5 ng/mL. Moreover, the Tmax in data set [1] (Sprague-Dawley, rat, plasma, po, 7 mg/kg, Control: halofantrine powder in 1% methylcellulose, read-out: Tmax) worked out at 4.6 ± 2.1 h; in data set [1] (Sprague-Dawley, rat, plasma, po, 7 mg/kg, Liposome: enteric coated proliposomal formulation, read-out: Tmax), 4 ± 1.3 h.

With `CCOC(=O)c1ccc(N)cc1` [Benzocaine, benzocaine], the Absorbance is given as 3.7377 in data set [2] (Applicant's Method), 3.6130 in data set [2] (Control Method With 0% Water) and 3.6030 in data set [2] (Control Method With 5% Water). For the same compound, the “Particle Size” value in data set [3] (Applicant's Method) is on record as 9.163 μm; in data set [3] (Control Method With 0% Water), 3.830 μm; in data set [3] (Control Method With 5% Water), 1.190 μm. The Texture result in data set [4] (Applicant's Method) is recorded as “Powder”; in data set [4] (Control Method With 0% Water), “Clear Solution”; in data set [4] (Control Method With 5% Water) it was “Clear Solution”.

Consider `COc1ccc(Cl)cc1C(=O)NCCc1ccc(S(=O)(=O)NC(=O)NC2CCCCC2)cc1` [Glyburide, glyburide], for which the Absorbance in data set [2] (Applicant's Method) is 1.9446; in data set [2] (Control Method With 0% Water) it was 3.9141; in data set [2] (Control Method With 5% Water), 3.8177. For the same compound, the “Particle Size” value in data set [3] (Applicant's Method) was 8.638 μm; in data set [3] (Control Method With 0% Water), 5.978 μm; in data set [3] (Control Method With 5% Water), 2.544 μm. Moreover, the Texture entry in data set [4] (Applicant's Method) is listed as “Powder”; in data set [4] (Control Method With 0% Water), “Milky”; in data set [4] (Control Method With 5% Water), “Milky”.

A word on the AUC: it is the area under the concentration-time curve, a measure of exposure. What is called Cmax is the peak of the concentration-time curve. Usually Tmax stands for the time at which the peak concentration occurs.
